# Laboratory results taken from ChEMBL document CHEMBL5729192, “CD73 inhibitors” (2022).
# Target: 5'-nucleotidase (Homo sapiens, UniProt P21589)
# Test: Biochemical Assay: Assay Reaction ConditionsAssay Volume: 70 μlReaction Volume: 50 μlCD73: 0.3208 nMAMP: 15 μMAssay Buffer: 2 5 mM Tris-HCL, pH 7.4, 0.01% Brij-35, 0.01% BSA, 5 mM MgCl2Assay Procedure:Used 384 clear plate.Made dose titration of testing compounds in assay buffer, 10 points ½ log titrations in duplicates starting at 100 μM.Added 25 μl of CD73 to each well for a final concentration of 320 pM.Incubated at RT for 15 min.Added 25 μl of AMP to each well for a final concentration of 15 μM.Incubated at RT for 10 min.Added 10 μl of Malachite Green Reagent A, incubate at RT for 10 min.Added 10 μl of Malachite Green Reagent B, incubate at RT for 45 min.Read the Absorbance on Envision plate reader using excitation filter: Cy5 620 nM.
# Sequence of 5'-nucleotidase (P21589 whole entry): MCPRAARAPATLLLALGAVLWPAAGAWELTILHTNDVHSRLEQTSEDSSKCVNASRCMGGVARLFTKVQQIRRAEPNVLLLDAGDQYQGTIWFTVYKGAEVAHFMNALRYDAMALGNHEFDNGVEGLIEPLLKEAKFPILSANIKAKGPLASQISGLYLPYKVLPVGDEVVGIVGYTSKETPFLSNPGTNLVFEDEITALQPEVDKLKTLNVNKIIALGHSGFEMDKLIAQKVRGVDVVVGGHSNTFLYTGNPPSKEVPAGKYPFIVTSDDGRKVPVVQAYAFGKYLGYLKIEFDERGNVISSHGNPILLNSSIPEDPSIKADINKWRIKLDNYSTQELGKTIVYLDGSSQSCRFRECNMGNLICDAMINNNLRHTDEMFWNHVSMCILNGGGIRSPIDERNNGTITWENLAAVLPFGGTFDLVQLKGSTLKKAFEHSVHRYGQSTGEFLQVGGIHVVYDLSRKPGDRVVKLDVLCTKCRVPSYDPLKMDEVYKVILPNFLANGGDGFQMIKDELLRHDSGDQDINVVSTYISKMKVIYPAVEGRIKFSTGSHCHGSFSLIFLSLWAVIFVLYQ
row,IC50 [nM],Compound
1,< 500,CNc1nc(Cl)nc2c1cnn2[C@@H]1O[C@H](COCP(=O)(O)O)[C@@H](O)[C@H]1O
2,< 500,C[C@]1(O)C[C@@H](Nc2nc(Cl)nc3c2cnn3[C@@H]2O[C@H](COCP(=O)(O)O)[C@@H](O)[C@H]2O)C1
3,< 500,O=P(O)(O)COC[C@H]1O[C@@H](n2ncc3c(NCc4cccc(Cl)c4Cl)nc(Cl)nc32)[C@H](O)[C@@H]1O
